From US20220000811A1, “COMPOSITION FOR PROMOTING HAIR GROWTH COMPRISING A GUANINE DERIVATIVE” (KOREA RESEARCH INSTITUTE OF BIOSCIENCE AND BIOTECHNOLOGY, priority 2019, published 2022)

How the values were obtained:
[1] = tested on: mouse embryonic fibroblasts (MEFs); assay: Reprogramming into iPSCs (OSKM) in mouse embryonic fibroblasts, AP staining; format: cell-based; conditions: for effect on reprogramming, number of AP+ colonies: MEFs, OSKM, after 14 days, indicated concentrations
Method: During reprogramming into iPSCs by introducing OSKM reprogramming factor into mouse embryonic fibroblasts (MEFs), rotenone, the guanidine derivatives of the present invention, and phenformin were treated at the indicated concentrations. After 14 days, alkaline phosphatase (AP) staining was performed (FIG. 2A), and the number of AP^+ colonies was quantified (FIG. 2b). […] In the subsequent experiment, additional efficacy was evaluated using only the three compounds showing the effective reprogramming-enhancing effect.

[2] = tested on: human foreskin fibroblast (HFFs); assay: Reprogramming into iPSCs (OSKM) in human foreskin fibroblasts, AP staining; format: cell-based; conditions: OSKM, after 28 days
Method: After 28 days, AP staining was performed (FIG. 3a), and the number of AP^+ colonies was quantified (FIG. 3b).

[3] = tested on: human embryonic stem cells (hESCs); assay: Maintaining stemness of human embryonic stem cells in unconditioned medium, AP staining; format: cell-based; conditions: hESCs in unconditioned medium, low dose
Method: Additionally, the effect of the compounds of the present invention on maintaining sternness of human embryonic stern cells (hESCs) was confirmed (FIG. 4). Specifically, when hESCs were cultured in an unconditioned medium (UM), the sternness was lost, and AP activity was weakened (FIG. 4a). […] In particular, when IM176OUT05 was treated at 10 nM and 100 nM concentrations, it was confirmed that the effect of maintaining the sternness was improved by 7.6 times and 8.2 times, respectively (FIG. 4b).

[4] = tested on: C57BL/6 mice; assay: Hair regeneration model, darkness of dorsal skin and hair growth; format: in vivo, mouse; conditions: 1% topical daily
Method: During the hair telogen phase, the hair on the dorsal skin of 7-week-old C57BL/6 mice (Dae Han BioLink, Chungbuk, Republic of Korea) was depilated using an animal clipper and wax (Veet, Oxy Reckitt Benckiser, Seoul, Republic of Korea). From the next day, 200 μL of placebo (control), 1% IM, 1% minoxidil, or 1% metformin was applied daily to the depilated area using a sterile cotton swab. Images of each animal were captured daily, and the degree of darkness of the color on dorsal skin was quantified in the same area (1.6 cm×3 cm) using the Image J program. The mice were sacrificed, and skin tissues on days 0, 7, 14, and 20 were obtained. Half of the tissues were used for RNA isolation, and the other half were fixed with 4% paraformaldehyde overnight for histochemical analysis. It was confirmed whether the IM compound can promote hair growth without showing toxicity or other side effects through mouse experiments. In 7-week-old C57BL/6 mice, the telogen phase was motivated by hair removal, and various concentrations of IM were applied topically to the dorsal skin of the mice daily.

[5] = tested on: K15/β-catenin, Ki67/Shh, K15/PDK, Ki67/PDH populations; assay: FACS analysis of single skin cells; format: in vivo, mouse
Method: During the hair telogen phase, the hair on the dorsal skin of 7-week-old C57BL/6 mice (Dae Han BioLink, Chungbuk, Republic of Korea) was depilated using an animal clipper and wax (Veet, Oxy Reckitt Benckiser, Seoul, Republic of Korea). From the next day, 200 μL of placebo (control), 1% IM, 1% minoxidil, or 1% metformin was applied daily to the depilated area using a sterile cotton swab. Images of each animal were captured daily, and the degree of darkness of the color on dorsal skin was quantified in the same area (1.6 cm×3 cm) using the Image J program. The mice were sacrificed, and skin tissues on days 0, 7, 14, and 20 were obtained. Half of the tissues were used for RNA isolation, and the other half were fixed with 4% paraformaldehyde overnight for histochemical analysis. After the mice were perfused with PBS to remove blood, the skin tissue was harvested and cut into small pieces. The tissue was digested with trypsin (Thermo Fisher Scientific) at 37° C. for 150 minutes, then filtered through a 75 μm nylon mesh, followed by filtering through a 30 μm mesh (BD Biosciences). Single cells were fixed, permeabilized, and blocked according to the immunostaining protocol. The cells were stained with specific antibodies (Table 1 above) and analyzed with BD Accuri™ C6 (BD Biosciences)

NC(=Nc1ccc(OC(F)(F)F)cc1)N=C(N)N1CCCC1 [IM156]
effect on reprogramming, number of AP+ colonies [1]: did not show an effect of promoting reprogramming

N=C(N)NC(=N)NCCc1ccc(Cl)c(Cl)c1 [IM176OUT04, N-1-(3,4-dichloro)phenethylbiguanide]
effect on reprogramming, number of AP+ colonies [1]: increased | concentration with the most excellent reprogramming efficacy [2]: 10 nM | AP staining (stemness) [3]: increase in AP staining

Cc1ccc(CCNC(=N)N)cc1C [IM177OUT02, 1-(3,4-dimethylphenethyl)guanide]
effect on reprogramming, number of AP+ colonies [1]: increased | concentration with the most excellent reprogramming efficacy [2]: 10 nM | AP staining (stemness) [3]: increase in AP staining

C=C(C)[C@H]1Cc2c(ccc3c2O[C@@H]2COc4cc(OC)c(OC)cc4[C@@H]2C3=O)O1 [Rotenone, reference compound]
promotion of reprogramming of somatic cells ([1]; sub-toxic dose (10 nM)): efficiently promote reprogramming

CN(C)C(=N)N=C(N)N [metformin, reference compound]
hair growth effect overall [4]: did not show a remarkable effect | darkness intensity on the dorsal skin compared to control ([4]; from day 8): slightly was increased

Nc1cc(N2CCCCC2)nc(N)[n+]1[O-] [minoxidil, reference compound]
K15+/β-catenin+ population in single skin cells ([5]; day 7, FACS): 6.0% | Ki67+/PDH+ population ([5]; day 7, FACS): 8.3% | Ki67+/Shh+ population in single skin cells ([5]; day 20, FACS): 34%

[H]/N=C(/N)N/C(=N/[H])NCCc1ccccc1 [phenformin, reference compound]
effect on reprogramming, number of AP+ colonies [1]: did not show an effect of promoting reprogramming
